The text below walks through data of publication PMC9952338, “Chemical Constituents from Streblus taxoides Wood with Their Antibacterial and Antityrosinase Activities Plus in Silico Study” (Antibiotics, 2023).

One experiment addresses tyrosinase enzyme. The experiment is described as follows: Enzymatic antityrosinase activity, Dopachrom method with L-DOPA. The format is biochemical, mushroom. Particulars: for IC50 Values: Experiment of Table 4, reference for the correlation, in µg/mL; for IC50 on tyrosinase inhibitory activity: L-DOPA substrate, pH 6.8, 25 °C. The protocol:
The tyrosinase activity was measured by the Dopachrom method using L-DOPA as a substrate. Briefly, 140 μL phosphate buffer (pH 6.8), 20 μL sample solution, and 20 μL tyrosinase solution (203.3 unit/mL) were mixed at 25 °C for 10 min, after which 20 μL of 0.85 mM L-Dopa was added. The optical density (OD) was measured at 492 nm. After incubation at 25 °C for 20 min, the optical density was measured again.

Experiment [1] relates to MITF, tyrosinase, TRP1 and TRP2 in B16-F1 cells. The experiment can be described thus: Western blot of melanogenic protein expression. The format is cell-based, murine. Particulars: 25 and 50 µg/mL. The source says: The protein content of the supernatant was quantified by the Bradford method using bovine serum albumin as standard. Equal amounts of protein were separated by 40% acrylamide/Bissolution (InvitrogenThermoFisher Scientific, Waltham, MA, USA) and transferred onto nitrocellulose membranes (BIO-RAD Laboratories, Feldkirchen, Germany). The membranes were probed with antibodies against microphthalmia-associated transcription factor; MITF (ThermoFisher Scientific #MA5-16214, Waltham, MA, USA), tyrosinase (ThermoFisher Scientific #35-6000, Waltham, MA, USA), tyrosinase-related protein 1; TRP1 (ThermoFisher Scientific #OSR00085W, Waltham, MA, USA) and tyrosinase-related protein 2; TRP2 (ThermoFisher Scientific #PA5-36485, Waltham, MA, USA). The proteins were detected using an enhanced chemiluminescence kit (BIO-RAD Laboratories, Hercules, CA, USA). Quantitative analysis was performed using a digital imager (UPV UVP, VisionWork^T LS, Image Acquisition & Analysis Software). The method applied was modified from Western Blot analysis for UGT1A family by the co-author, Asst. Prof. Dr. Wandee Udomuksorn, Pharmacology Program, Division of Health and Applied Science, Faculty of Science, Prince of Songkla University, Thailand., Department of Clinical Pharmacology, Flinders Medical Center.
(In general: A western blot detects proteins with antibodies after separation by electrophoresis.)

Experiment [2] has as its system tyrosinase in B16-F1 melanoma cells. The experiment is described as follows: Intracellular antityrosinase activity. Format: cell-based, murine. Particulars: 50 µg/mL, 48 h. The protocol:
(§1) The murine B16-F1 melanoma cells (CLS-400122, CLS Cell Lines Service GmbH, Germany) were cultured in Dulbecco’s modified Eagle’s medium, which was supplemented with 10% fetal bovine serum in a humidified incubator at 37 C with 5% CO2. When cells reached 70–80% confluence cell viability, cellular tyrosinase activity and melanin content were measured. The B16-F1 cells were seeded at a density of 3 × 10^5 cells/well on 12-well plates and cultured for 12 h. Cells were treated with test samples and control (0.5% DMSO). After 48 h of incubation, cells were lysed with RIPA and centrifuged at 14,000 rpm for 20 min (4 °C) to separate the cell pellet and supernatant. The supernatant was collected and the protein content was determined by the Bradford method using bovine serum albumin as standard. The supernatant was incubated and 2 mg/mL L-Dopa was added to a 96-well plate at 25 °C for 1 h. After that, optical densities were measured at 492 nm. Then, tyrosinase inhibition was calculated, while the cell pellet was dissolved with 1 M NaOH and incubated at 55 °C for 1 h. Melanin concentration was calculated by comparing the absorbance at 475 nm using a standard curve of synthetic melanin.

The test system of the next experiment is B16-F1 melanoma cells. The experiment is described as follows: Melanin content. The format is cell-based, murine. Particulars: 50 µg/mL. The protocol:
as §1

Experiment [3] concerns methicillin-resistant Staphylococcus aureus (DMST20654). The experiment is described as follows: MIC and MBC by modified broth microdilution. The format is cell-based. Particulars: MRSA; for MBC / MIC: Staphylococcus aureus. Here is the method:
(§2) Microorganisms that cause skin infection, such as Staphylococcus aureus (ATTC 25923), Staphylococcus epidermidis (TISTR 517), Cutibacterium acnes (DMST 14916) and methicillin-resistant Staphylococcus aureus (DMST20654), were selected for this study. The isolated compounds were determined for minimum inhibitory concentration (MIC) in a 96-well plate by modified broth microdilution method and minimum bactericidal concentration (MBC). Oxacillin was used as positive controls for S. aureus, S. epidermidis and C. acnes, while vancomycin was used for MRSA.
(Dilution methods test growth across graded concentrations, often in twofold steps.)

Experiment [4] has as its system Staphylococcus epidermidis (TISTR 517). The experiment can be described thus: MIC and MBC by modified broth microdilution. The format is cell-based. Particulars: S. epidermidis; for MBC / MIC: Staphylococcus epidermidis, TISTR517. The protocol: as §2
Experiment [5] deals with Staphylococcus aureus (ATTC 25923). The experiment is described as follows: MIC and MBC by modified broth microdilution. Format: cell-based. Particulars: S. aureus; for MBC / MIC: Staphylococcus aureus. Here is the method: as §2
The subject of experiment [6] is Cutibacterium acnes (DMST 14916). The experiment is described as follows: MIC and MBC by modified broth microdilution. The format is cell-based. Particulars: C. acnes. Here is the method: as §2
The next experiment deals with tyrosinase. On the set-up: method as in PMID 27598113. Particulars: cited from earlier work.
[7] abbreviates: listed as 3, 4, 3′, 5′-tetrahydroxybibenzyl.

Values after ≈ are worked out from the molar mass of the structure shown. “Also recorded” adds a separate entry of the source. Where two headings read alike, the source gives them in different places.

One may read the MBC as the lowest tested concentration that kills the bacteria rather than only halting them. As usually defined, the MIC is the lowest concentration that inhibits growth of the organism. On to `CC(=CCc1c(O)cc(-c2cc3ccc(O)cc3o2)cc1O)CO` [Compound 1, ω-Hydroxymoracin C], for which, at tyrosinase enzyme, the “IC50 Values” came out at 109.64. Besides, at tyrosinase enzyme, the “IC50 on tyrosinase inhibitory activity” value came out at 109.64 ± 0.89 µg/mL (≈ 336 µM). The Melanogenic protein expression result was “downregulated the melanogenic protein expression” in [1] (listed as ω-Hydroxymoracin C); “decreasing microphthalmia-associated transcription factor (MITF), tyrosinase (TYR), tyrosinase-related protein 1 (TRP1) and tyrosinase-related protein 2 (TRP2)” in experiment [1] (listed as ω-hydroxymoracin C). In [2], the Intracellular antityrosinase activity result is “exhibited antityrosinase activity”. Further, the Melanin content entry with B16-F1 melanoma cells was “could decrease the melanin content”. Moreover, the “Inhibitory effect (in words)” value in [3], in experiment [4] and in experiment [5] was “stronger inhibitory effect” in each case. Also, the MBC in experiment [3] (read-out: MBC) is more than 256 µg/mL; in [4], 32 µg/mL (≈ 98.1 µM); in experiment [5] it was 32 µg/mL (≈ 98.1 µM); in experiment [6], more than 256 µg/mL. The MIC stood at 16 µg/mL (≈ 49 µM) in [3] (read-out: MIC), 16 µg/mL (≈ 49 µM) in [4], 16 µg/mL (≈ 49 µM) in experiment [5] and 128 µg/mL (≈ 392 µM) in [6].

Consider `Oc1cc(O)cc(-c2cc3ccc(O)cc3o2)c1` [Compound 2, moracin M], for which the “IC50 Values” against tyrosinase enzyme turned out to be 47.34. Besides, the “IC50 on tyrosinase inhibitory activity” value against tyrosinase enzyme amounted to 47.34 ± 0.78 µg/mL (≈ 195 µM). The Melanogenic protein expression result in experiment [1] was “decreasing microphthalmia-associated transcription factor (MITF), tyrosinase (TYR), tyrosinase-related protein 1 (TRP1) and tyrosinase-related protein 2 (TRP2); also recorded: downregulated the melanogenic protein expression”. The Intracellular antityrosinase activity entry in [2] is given as “exhibited antityrosinase activity”. For the same compound, the Melanin content result in the experiment on B16-F1 melanoma cells is listed as “could decrease the melanin content”. Further, the “Inhibitory effect (in words)” value in experiment [3], in [4] and in experiment [5] was “weak inhibitory effect” each time. Besides, the MBC in experiment [3] (read-out: MBC), in experiment [4], in [5] and in experiment [6] was more than 256 µg/mL in each case. Moreover, the MIC was 64 µg/mL (≈ 264 µM) in [3] (read-out: MIC), 64 µg/mL (≈ 264 µM) in experiment [4], 256 µg/mL (≈ 1060 µM) in [5] and more than 256 µg/mL in [6].

In the case of `CC(C)=CCc1c(O)cc(-c2cc3ccc(O)cc3o2)cc1O` [Compound 3, moracin C], the “IC50 Values” against tyrosinase enzyme is listed as 128.67. The “IC50 on tyrosinase inhibitory activity” value against tyrosinase enzyme came to 128.67 ± 1.21 µg/mL (≈ 415 µM). For the same compound, in experiment [1], the Melanogenic protein expression result was “decreasing microphthalmia-associated transcription factor (MITF), tyrosinase (TYR), tyrosinase-related protein 1 (TRP1) and tyrosinase-related protein 2 (TRP2); also recorded: downregulated the melanogenic protein expression”. Also, the Intracellular antityrosinase activity result in experiment [2] is listed as “exhibited antityrosinase activity”. Further, in the experiment on B16-F1 melanoma cells, the Melanin content result is reported as “could decrease the melanin content”. Also, the “Inhibitory effect (in words)” value in experiment [3], in [4] and in experiment [5] was “stronger inhibitory effect” throughout. Also, the MBC was 64 µg/mL (≈ 206 µM) in experiment [3] (read-out: MBC), more than 256 µg/mL in [4], 64 µg/mL (≈ 206 µM) in experiment [5] and more than 256 µg/mL in experiment [6]. Further, the MIC in experiment [3] (read-out: MIC) was found to be 32 µg/mL (≈ 103 µM); in experiment [4], 128 µg/mL (≈ 412 µM); in experiment [5] it was 32 µg/mL (≈ 103 µM); in experiment [6], 128 µg/mL (≈ 412 µM).

Consider `Oc1cc(O)cc(CCc2ccc(O)c(O)c2)c1` [Compound 4, 3,4, 3′, 5′-tetrahydroxybibenzyl], for which the “IC50 on tyrosinase inhibitory activity” value against tyrosinase enzyme is recorded as 35.65 ± 0.98 µg/mL (≈ 145 µM). In addition, in experiment [1] (setting [7]), the Melanogenic protein expression entry is “increasing microphthalmia-associated transcription factor (MITF) and tyrosinase (TYR); also recorded: upregulating the melanogenic protein expression”. Moreover, the Melanin content entry in the experiment on B16-F1 melanoma cells (setting [7]) is “increased the melanin content; also recorded: increase melanin content”. Further, the MBC in experiment [3] (read-out: MBC) is 256 µg/mL (≈ 1040 µM); in experiment [4] it was more than 256 µg/mL; in experiment [5] it was 256 µg/mL (≈ 1040 µM); in [6], more than 256 µg/mL. Moreover, the MIC in [3] (read-out: MIC) was 64 µg/mL (≈ 260 µM); in experiment [4] it was 128 µg/mL (≈ 520 µM); in experiment [5] it was 128 µg/mL (≈ 520 µM); in experiment [6], more than 256 µg/mL.

Consider `Oc1cc(O)cc(/C=C/c2ccc(O)c(O)c2)c1` [Compound 5, piceatannol], for which, on tyrosinase enzyme, the “IC50 Values” amounted to 149.73. The “IC50 on tyrosinase inhibitory activity” value at tyrosinase enzyme stood at 149.73 ± 0.86 µg/mL (≈ 613 µM). Further, the Melanogenic protein expression result in experiment [1] is “increasing microphthalmia-associated transcription factor (MITF) and tyrosinase (TYR); also recorded: upregulating the melanogenic protein expression”. Moreover, in the experiment on B16-F1 melanoma cells, the Melanin content result was “increased the melanin content; also recorded: increase melanin content”. Besides, the MBC in [3] (read-out: MBC) was more than 256 µg/mL; in experiment [4] it was 128 µg/mL (≈ 524 µM); in [5], more than 256 µg/mL; in experiment [6] it was more than 256 µg/mL. Besides, the MIC was 128 µg/mL (≈ 524 µM) in experiment [3] (read-out: MIC), 64 µg/mL (≈ 262 µM) in [4], more than 256 µg/mL in experiment [5] and more than 256 µg/mL in [6].

Consider `Cc1onc(-c2ccccc2)c1C(=O)N[C@@H]1C(=O)N2[C@@H]1SC(C)(C)[C@@H]2C(=O)O` [Oxa, Oxacillin, reference compound], for which the results for the MBC in experiment [4], in experiment [5] and in experiment [6] were 0.5 µg/mL (≈ 1.25 µM), 0.125 µg/mL (≈ 0.311 µM) and 0.5 µg/mL (≈ 1.25 µM), respectively. Also, the MIC in experiment [4] came out at 0.5 µg/mL (≈ 1.25 µM); in experiment [5], 0.125 µg/mL (≈ 0.311 µM); in experiment [6] it was 0.5 µg/mL (≈ 1.25 µM).

Take `CN[C@H](CC(C)C)C(=O)N[C@H]1C(=O)N[C@@H](CC(N)=O)C(=O)N[C@H]2C(=O)N[C@H]3C(=O)N[C@H](C(=O)N[C@H](C(=O)O)c4cc(O)cc(O)c4-c4cc3ccc4O)[C@H](O)c3ccc(c(Cl)c3)Oc3cc2cc(c3O[C@@H]2O[C@H](CO)[C@@H](O)[C@H](O)[C@H]2O[C@H]2C[C@](C)(N)[C@H](O)[C@H](C)O2)Oc2ccc(cc2Cl)[C@H]1O` [Van, Vancomycin, reference compound]: in experiment [3], the MBC was 0.5 µg/mL (≈ 0.345 µM) and 0.125 µg/mL (≈ 0.0863 µM) was the least that counted as inhibitory (MIC).

On to `CC1(C)C=Cc2c(O)cc(-c3cc4ccc(O)cc4o3)cc2O1` [moracin D], for which the “Antityrosinase activity (in words)” value in the experiment with tyrosinase was “did not display antityrosinase activity”.
